Experimental data taken from PubChem BioAssay AID250 (DTP/NCI, 2004).
“And” between values parts separate entries of the source, which are not always exact repeats. Identical values can stand only once. Toxic doses and inconclusive results are not listed.

System: BDF1 mice, L1210 leukemia sc, survival T/C
Experiment: NCI In Vivo Anticancer Drug Screen. Data for tumor model L1210 Leukemia (subcutaneous) in B6D2F1 (BDF1) mice
Settings: endpoint: median survival time, higher = longer survival
Procedure, shortened: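 Read-out: T/C ratio, i.e. survival or tumor size in treated mice over that in vehicle-treated controls, from mice bearing transplantable tumors.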

O=NN(CCCl)C(=O)NCCCl
T/C (dose: 0.65 mg/kg/injection, schedule: Q01DX Z (sc), vehicle: methylcellulose (MC)): 115 % of control | T/C (dose: 0.75 mg/kg/injection, schedule: Q01DX009 (ip), vehicle: saline): 110 % of control | T/C (dose: 1.08 mg/kg/injection, schedule: Q## X Z (sc), vehicle: methylcellulose (MC)): 107 % of control | T/C (dose: 1.5 mg/kg/injection, schedule: Q01DX009 (ip), vehicle: saline): 120 % of control | T/C (dose: 1.8 mg/kg/injection, schedule: Q01DX Z (sc), vehicle: methylcellulose (MC)): 184 % of control | T/C (dose: 1.8 mg/kg/injection, schedule: Q07DX Z (sc), vehicle: methylcellulose (MC)): 107 % of control | T/C (dose: 1.8 mg/kg/injection, schedule: Q## X Z (sc), vehicle: methylcellulose (MC)): 115 % of control | T/C (dose: 3.0 mg/kg/injection, schedule: Q01DX001 (ip), vehicle: saline): 119 % of control | T/C (dose: 3.0 mg/kg/injection, schedule: Q01DX001 (iv), vehicle: saline): 123 % of control | T/C (dose: 3.0 mg/kg/injection, schedule: Q01DX009 (ip), vehicle: saline): 190 % of control | T/C (dose: 3.0 mg/kg/injection, schedule: Q01DX Z (oral), vehicle: saline): 205 % of control | T/C (dose: 3.0 mg/kg/injection, schedule: Q01DX Z (sc), vehicle: methylcellulose (MC)): 223 % of control | T/C (dose: 3.0 mg/kg/injection, schedule: Q07DX Z (sc), vehicle: methylcellulose (MC)): 115 % of control | T/C (dose: 3.0 mg/kg/injection, schedule: Q## X Z (sc), vehicle: methylcellulose (MC)): 119 % of control | T/C (dose: 3.0 mg/kg/injection, schedule: Q## X Z (sc), vehicle: saline): 123 % of control | T/C (dose: 5.0 mg/kg/injection, schedule: Q01DX001 (sc), vehicle: saline): 115 % of control | T/C (dose: 5.0 mg/kg/injection, schedule: Q01DX Z (oral), vehicle: saline): 521 % of control | T/C (dose: 5.0 mg/kg/injection, schedule: Q01DX Z (sc), vehicle: methylcellulose (MC)): 200 % of control | T/C (dose: 5.0 mg/kg/injection, schedule: Q07DX Z (sc), vehicle: saline): 120 % of control and 123 % of control | T/C (dose: 5.0 mg/kg/injection, schedule: Q## X Z (sc), vehicle: methylcellulose (MC)): 173 % of control | T/C (dose: 6.0 mg/kg/injection, schedule: Q01DX009 (ip), vehicle: saline): 210 % of control | T/C (dose: 8.4 mg/kg/injection, schedule: Q01DX001 (ip), vehicle: saline): 233 % of control | T/C (dose: 8.4 mg/kg/injection, schedule: Q01DX001 (iv), vehicle: saline): 247 % of control | T/C (dose: 8.4 mg/kg/injection, schedule: Q01DX Z (oral), vehicle: saline): 284 % of control | T/C (dose: 8.4 mg/kg/injection, schedule: Q01DX Z (sc), vehicle: methylcellulose (MC)): 188 % of control | T/C (dose: 8.4 mg/kg/injection, schedule: Q07DX Z (sc), vehicle: methylcellulose (MC)): 161 % of control | T/C (dose: 8.4 mg/kg/injection, schedule: Q07DX Z (sc), vehicle: other): 305 % of control | T/C (dose: 8.4 mg/kg/injection, schedule: Q07DX Z (sc), vehicle: saline): 161 % of control and 210 % of control and 252 % of control | T/C (dose: 8.4 mg/kg/injection, schedule: Q16DX002 (ip), vehicle: saline): 172 % of control | T/C (dose: 8.4 mg/kg/injection, schedule: Q## X Z (sc), vehicle: methylcellulose (MC)): 250 % of control | T/C (dose: 8.4 mg/kg/injection, schedule: Q## X Z (sc), vehicle: saline): 246 % of control | T/C (dose: 10.0 mg/kg/injection, schedule: Q01DX001 (sc), vehicle: methylcellulose (MC)): 255 % of control | T/C (dose: 10.0 mg/kg/injection, schedule: Q01DX001 (sc), vehicle: saline): 185 % of control | T/C (dose: 10.8 mg/kg/injection, schedule: Q01DX001 (ip), vehicle: saline): 150 % of control | T/C (dose: 10.8 mg/kg/injection, schedule: Q01DX001 (sc), vehicle: saline): 248 % of control and 250 % of control | T/C (dose: 10.8 mg/kg/injection, schedule: Q07DX003 (sc), vehicle: saline): 274 % of control and 275 % of control | T/C (dose: 14.0 mg/kg/injection, schedule: Q01DX001 (iv), vehicle: saline): 209 % of control | T/C (dose: 14.0 mg/kg/injection, schedule: Q01DX Z (oral), vehicle: saline): 194 % of control | T/C (dose: 14.0 mg/kg/injection, schedule: Q01DX Z (sc), vehicle: saline): 161 % of control and 273 % of control and 285 % of control | T/C (dose: 14.0 mg/kg/injection, schedule: Q01HX002 (ip), vehicle: saline): 315 % of control | T/C (dose: 14.0 mg/kg/injection, schedule: Q07DX Z (sc), vehicle: methylcellulose (MC)): 173 % of control | T/C (dose: 14.0 mg/kg/injection, schedule: Q07DX Z (sc), vehicle: other): 88 % of control | T/C (dose: 14.0 mg/kg/injection, schedule: Q07DX Z (sc), vehicle: saline): 200 % of control | T/C (dose: 14.0 mg/kg/injection, schedule: Q16DX002 (ip), vehicle: saline): 315 % of control | T/C (dose: 14.0 mg/kg/injection, schedule: Q## X Z (sc), vehicle: methylcellulose (MC)): 315 % of control | T/C (dose: 14.0 mg/kg/injection, schedule: Q## X Z (sc), vehicle: saline): 315 % of control | T/C (dose: 18.0 mg/kg/injection, schedule: Q01DX001 (ip), vehicle: saline): 181 % of control and 200 % of control | T/C (dose: 18.0 mg/kg/injection, schedule: Q01DX001 (sc), vehicle: saline): 310 % of control and 352 % of control | T/C (dose: 18.0 mg/kg/injection, schedule: Q07DX003 (sc), vehicle: saline): 645 % of control and 660 % of control | T/C (dose: 20.0 mg/kg/injection, schedule: Q01DX001 (sc), vehicle: methylcellulose (MC)): 240 % of control | T/C (dose: 20.0 mg/kg/injection, schedule: Q01DX001 (sc), vehicle: saline): 270 % of control | T/C (dose: 23.0 mg/kg/injection, schedule: Q01DX001 (ip), vehicle: saline): 480 % of control | T/C (dose: 23.0 mg/kg/injection, schedule: Q01DX001 (iv), vehicle: saline): 423 % of control | T/C (dose: 23.0 mg/kg/injection, schedule: Q01DX Z (oral), vehicle: saline): 157 % of control | T/C (dose: 23.0 mg/kg/injection, schedule: Q01HX002 (ip), vehicle: saline): 315 % of control | T/C (dose: 23.0 mg/kg/injection, schedule: Q07DX Z (sc), vehicle: methylcellulose (MC)): 184 % of control | T/C (dose: 23.0 mg/kg/injection, schedule: Q07DX Z (sc), vehicle: other): 555 % of control | T/C (dose: 23.0 mg/kg/injection, schedule: Q07DX Z (sc), vehicle: saline): 438 % of control and 631 % of control and 645 % of control | T/C (dose: 23.0 mg/kg/injection, schedule: Q16DX002 (ip), vehicle: saline): 315 % of control | T/C (dose: 23.0 mg/kg/injection, schedule: Q## X Z (sc), vehicle: saline): 284 % of control | T/C (dose: 24.0 mg/kg/injection, schedule: Q01DX009 (ip), vehicle: saline): 115 % of control | T/C (dose: 30.0 mg/kg/injection, schedule: Q01DX001 (ip), vehicle: saline): 218 % of control and 483 % of control | T/C (dose: 30.0 mg/kg/injection, schedule: Q01DX001 (sc), vehicle: saline): 410 % of control and 441 % of control | T/C (dose: 30.0 mg/kg/injection, schedule: Q07DX003 (sc), vehicle: saline): 295 % of control and 303 % of control | T/C (dose: 39.0 mg/kg/injection, schedule: Q01DX001 (ip), vehicle: saline): 309 % of control | T/C (dose: 39.0 mg/kg/injection, schedule: Q07DX Z (sc), vehicle: other): 294 % of control | T/C (dose: 39.0 mg/kg/injection, schedule: Q07DX Z (sc), vehicle: saline): 173 % of control and 315 % of control | T/C (dose: 40.0 mg/kg/injection, schedule: Q01DX001 (sc), vehicle: methylcellulose (MC)): 230 % of control | T/C (dose: 40.0 mg/kg/injection, schedule: Q01DX001 (sc), vehicle: saline): 195 % of control | T/C (dose: 48.0 mg/kg/injection, schedule: Q01DX001 (ip), vehicle: saline): 292 % of control | T/C (dose: 50.0 mg/kg/injection, schedule: Q01DX001 (ip), vehicle: saline): 475 % of control | T/C (dose: 50.0 mg/kg/injection, schedule: Q01DX001 (sc), vehicle: saline): 205 % of control | T/C (dose: 60.0 mg/kg/injection, schedule: Q01DX001 (ip), vehicle: saline): 124 % of control | T/C (dose: 65.0 mg/kg/injection, schedule: Q01DX001 (oral), vehicle: saline): 114 % of control | T/C (dose: 65.0 mg/kg/injection, schedule: Q07DX Z (sc), vehicle: other): 205 % of control | T/C (dose: 80.0 mg/kg/injection, schedule: Q01DX001 (sc), vehicle: methylcellulose (MC)): 110 % of control | T/C (dose: 80.0 mg/kg/injection, schedule: Q01DX001 (sc), vehicle: saline): 110 % of control | T/C (dose: 108.0 mg/kg/injection, schedule: Q01DX001 (oral), vehicle: saline): 104 % of control | T/C (dose: 120.0 mg/kg/injection, schedule: Q01DX001 (sc), vehicle: methylcellulose (MC)): 100 % of control | T/C (dose: 120.0 mg/kg/injection, schedule: Q01DX001 (sc), vehicle: saline): 105 % of control | T/C (dose: 180.0 mg/kg/injection, schedule: Q01DX001 (oral), vehicle: saline): 95 % of control
